Patent US11472778B2, “Hepatitis C virus NS3/4A protease inhibitors” (priority 2017, dated 2022)
Like-named read-outs stand apart in the source and are kept apart here.

What was measured:
[1] = test system: wild-type HCV replicon in Huh7 cells; experiment: Cell-based drug susceptibility (replicon) assay, wild-type; details: Hepatitis C virus, read-out: Replicon EC50 (nM) WT
Experimental: (§1) Mutations (R155K, A516T, D168A and D168V) were constructed by site-directed mutagenesis using a Con1 (genotype 1b) luciferase reporter replicon containing the H77 (genotype 1a) NS3 sequence.
(§2) Replicon RNA of each protease variant was introduced into Huh7 cells by electroporation. Replication was then assessed in the presence of increasing concentrations of protease inhibitors by measuring luciferase activity (relative light units) 96 h after electroporation.
(§3) Mutations (R155K, D168A and A156T) were constructed by site-directed mutagenesis using a Con1 (genotype 1b) luciferase reporter replicon containing the H77 (genotype 1a) NS3 sequence.^6 Replicon RNA of each protease variant was introduced into Huh7 cells by electroporation. Replication was then assessed in the presence of increasing concentrations of protease inhibitors by measuring luciferase activity (relative light units) 96 h after electroporation.

[2] = test system: HCV replicon R155K variant in Huh7 cells; experiment: microbe, parasite or virus in culture; assay type: cell-based, Hepatitis C virus; details: for EC50: Hepatitis C virus; for Replicon EC50 (Fold change) R155K: Table 4, relative to WT replicon
Experimental: as §1, §2, §3

[3] = test system: HCV replicon A156T variant in Huh7 cells; experiment: microbe, parasite or virus in culture; assay type: cell-based, Hepatitis C virus; details: for Replicon EC50 (Fold change) A156T: Table 4, relative to WT replicon
Experimental: as §1, §2, §3

[4] = test system: HCV replicon D168A variant in Huh7 cells; experiment: microbe, parasite or virus in culture; assay type: cell-based, Hepatitis C virus; details: for EC50: Hepatitis C virus; for Replicon EC50 (Fold change) D168A: Table 4, relative to WT replicon
Experimental: as §1, §2, §3

[5] = molecular target: T1, wild-type GT1a NS3/4A protease (UniProt P27958, C1185S, species not given); assay type: biochemical, Hepatitis C virus; details: read-out: Ki (nM) GT1a WT NS3/4A Protease
T1 construct: Ki (nM) GT1a WT NS3/4A Protease
Experimental: (§4) For each assay, 2 nM of NS3/4A protease (GT1, D168A and GT3) was pre-incubated at room temperature for 1 h with increasing concentration of inhibitors in assay buffer [50 mM Tris, 5% glycerol, 10 mM DTT, 0.6 mM LDAO, and 4% dimethyl sulfoxide]. Inhibition assays were performed in nonbinding surface 96-well black half-area plates (Corning) in a reaction volume of 60 μt. […] Three independent data sets were collected for each inhibitor with each protease construct.
as §4, with “(GT1a” for “(GT1, D168A”, “D168A)” for “GT3)”, “(50” for “[50”, “sulfoxide, pH 7.5).” for “sulfoxide].”, “non-binding” for “nonbinding”, “μL.” for “μt.”
(§5) For each assay, 2 nM of NS3/4A protease (GT1a, R155K and D168A) was pre-incubated at room temperature for 1 h with increasing concentration of inhibitors in assay buffer (50 mM Tris, 5% glycerol, 10 mM DTT, 0.6 mM LDAO, and 4% dimethyl sulfoxide, pH 7.5). Inhibition assays were performed in non-binding surface 96-well black half-area plates (Corning) in a reaction volume of 60 μL. […] Three independent data sets were collected for each inhibitor with each protease construct. […] Gibbs free energy of binding was calculated using the following equation: ΔG=RTlnKi

[6] = molecular target: T2, GT1a D168A NS3/4A protease (UniProt P27958, C1185S/D1194A, species not given); assay type: biochemical, Hepatitis C virus; details: read-out: Ki (nM) GT1a D168A NS3/4A Protease
T2 construct: Ki (nM) GT1a D168A NS3/4A Protease
Experimental: as §4
(§6) For each assay, 2 nM of NS3/4A protease (GT1a and D168A) was pre-incubated at room temperature for 1 h with increasing concentration of inhibitors in assay buffer (50 mM Tris, 5% glycerol, 10 mM DTT, 0.6 mM LDAO, and 4% dimethyl sulfoxide, pH 7.5). Inhibition assays were performed in non-binding surface 96-well black half-area plates (Corning) in a reaction volume of 60 μL. […] Three independent data sets were collected for each inhibitor with each protease construct.
as §5

[7] = molecular target: GT1a D168A NS3/4A protease; assay type: biochemical, Hepatitis C virus; details: Table 3; Ki D168A relative to GT1a WT
Experimental: as §4, §6, §5

[8] = test system: HCV replicon D168V variant in Huh7 cells; experiment: microbe, parasite or virus in culture; assay type: cell-based, Hepatitis C virus; details: for EC50: Hepatitis C virus; for Replicon EC50 (Fold change) D168V: Table 4, relative to WT replicon
Experimental: as §1
Replicon RNA of each protease variant was introduced into Huh7 cells by electroporation. Replication was then assessed in the presence of increasing concentrations of protease inhibitors by measuring luciferase activity (relative light units) 96 h after electroporation. […]

[9] = Huh-7, 96 h, Table 2, Huh7 cells, luciferase 96 h
[10] = Huh-7, 96 h, read-out: Replicon EC50 (nM) R155K, Table 2, Huh7 cells, luciferase 96 h
[11] = Huh-7, read-out: Replicon EC50 (nM) R155K, Table 4
[12] = Hepatitis C virus, Huh-7, 96 h, read-out: Replicon EC50 (nM) A156T, Table 2, Huh7 cells, luciferase 96 h
[13] = Hepatitis C virus, Huh-7, read-out: Replicon EC50 (nM) A156T, Table 4
[14] = Huh-7, 96 h, read-out: Replicon EC50 (nM) D168A, Table 2, Huh7 cells, luciferase 96 h
[15] = Huh-7, read-out: Replicon EC50 (nM) D168A, Table 4
[16] = Huh-7, 96 h, read-out: Replicon EC50 (nM) D168V, Table 2, Huh7 cells, luciferase 96 h
[17] = Huh-7, read-out: Replicon EC50 (nM) D168V, Table 4

Compound | EC50 [1, 9] | EC50 ([1]; Huh-7, Table 4) | EC50 [2, 10] | EC50 [2, 11] | Replicon EC50 (Fold change) R155K [2] | EC50 [3, 12] | EC50 [3, 13] | Replicon EC50 (Fold change) A156T [3] | EC50 [4, 14] | EC50 [4, 15] | Replicon EC50 (Fold change) D168A [4] | Ki ([5]; Table 1) | Ki ([5]; Table 3) | Ki ([6]; Table 1) | Ki ([6]; Table 3) | Ki (Fold change) GT1a D168A NS3/4A Protease [7] | EC50 [8, 16] | EC50 [8, 17] | Replicon EC50 (Fold change) D168V [8] | other results
COc1ccc2nc(C(C)C)c(O[C@@H]3C[C@H]4C(=O)N[C@]5(C(=O)NS(=O)(=O)C6CC6)C[C@H]5/C=C\CCCCC[C@H](NC(=O)OC5CCCC5)C(=O)N4C3)nc2c1 [Compound 22e, Cyclopentyl ((2R,6S,13aS,14aR,16aS,Z)-14a-((cyclopropylsulfonyl)carbamoyl)-2-((3-isopropyl-7-methoxyquinoxalin-2-yl)oxy)-5,16-dioxo-1,2,3,5,6,7,8,9,10,11,13a,14,14a,15,16,16a-hexadecahydrocyclopropa[e]pyrrolo[1,2-a][1,4]diazacyclopentadecin-6-yl)carbamate] | 0.48 nM | 0.48 nM | 7.63 nM | 7.63 nM | (16) fold | 32.1 nM | 32.1 nM | (67) fold | 7.96 nM | 7.96 nM | (17) fold | 1.44 nM | 1.44 nM | 161 nM | 161 ± 11 nM | (112) fold | 30.1 nM | 30.1 nM | (63) fold | 
CCc1nc2ccccc2nc1O[C@@H]1C[C@H]2C(=O)N[C@]3(C(=O)NS(=O)(=O)C4CC4)C[C@H]3/C=C\CCCCC[C@H](NC(=O)OC3CCCC3)C(=O)N2C1 [Compound 22g, Cyclopentyl ((2R,6S,13aS,14aR,16aS,Z)-14a-((cyclopropylsulfonyl)carbamoyl)-2-((3-ethylquinoxalin-2-yl)oxy)-5,16-dioxo-1,2,3,5,6,7,8,9,10,11,13a,14,14a,15,16,16a-hexadecahydrocyclopropa[e]pyrrolo[1,2-a][1,4]diazacyclopentadecin-6-yl)carbamate] | 0.24 nM | 0.24 nM | 4.28 nM | 4.28 nM | (18) fold | 24.6 nM | 24.6 nM | (103) fold | 7.5 nM | 7.5 nM | (31) fold | 1.99 nM | 1.99 nM | 107 nM | 107 ± 7 nM | (54) fold | 19.3 nM | 19.3 nM | (80) fold | 
C=C[C@@H]1C[C@]1(NC(=O)[C@@H]1C[C@@H]2CN1C(=O)[C@H](C(C)(C)C)NC(=O)O[C@@H]1C[C@H]1CCCCCc1nc3ccc(OC)cc3nc1O2)C(=O)NS(=O)(=O)C1CC1 [Compound 1, grazoprevir, reference compound] |  | 0.14 nM |  | 1.89 nM |  |  |  |  |  | 9.69 nM |  |  |  |  |  |  |  | 5.41 nM |  | EC50 ([1]; Huh-7, Table 9): 0.12 nM; EC50 ([2]; Huh-7, read-out: Replicon EC50 (nM) R155K, Table 9): 1.9 nM; EC50 ([3]; Hepatitis C virus, Huh-7, read-out: Replicon EC50 (nM) A156T, Table 9): 200 nM; EC50 ([3]; read-out: Replicon EC50 (nM) A156T, Table 2, Huh7 cells, luciferase 96 h): 238 nM; EC50 ([4]; Huh-7, read-out: Replicon EC50 (nM) D168A, Table 9): 11 nM; EC50 ([8]; Huh-7, read-out: Replicon EC50 (nM) D168V, Table 9): 5.3 nM
